Results on 3 compounds are retold here after article PMC6380956 (Biochemistry, 2019).

pKd: −log10 of the molar value.

The target of experiment [1] is T1, MjCobT (Methanocaldococcus jannaschii, UniProt Q58993).
T1 sequence (Q58993 1-350): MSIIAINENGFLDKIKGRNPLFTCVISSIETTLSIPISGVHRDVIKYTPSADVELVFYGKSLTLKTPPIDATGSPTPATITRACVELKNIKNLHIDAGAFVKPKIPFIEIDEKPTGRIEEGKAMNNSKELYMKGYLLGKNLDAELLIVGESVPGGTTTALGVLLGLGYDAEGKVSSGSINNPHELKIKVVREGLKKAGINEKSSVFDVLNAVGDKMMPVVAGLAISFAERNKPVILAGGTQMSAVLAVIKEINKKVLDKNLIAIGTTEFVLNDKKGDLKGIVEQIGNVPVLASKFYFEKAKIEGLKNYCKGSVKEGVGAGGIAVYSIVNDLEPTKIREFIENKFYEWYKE
Nature of the experiment: isothermal titration calorimetry. The format is binding.

Experiment [2] has as its target T1, MjCobT. Nature of the experiment: product formation by purified enzyme from NaMN and [[…]-14C]-DMB, TLC. The class given is biochemical.
The target of experiment [3] is Methanocaldococcus jannaschii CobT (NaMN:DMB phosphoribosyltransferase) (Methanocaldococcus jannaschii). Nature of the experiment: AUC.

Usually pKd stands for the negative decadic logarithm of the Kd, by convention in mol/L. Regarding `O=C([O-])c1ccc[n+]([C@@H]2O[C@H](COP(=O)(O)O)[C@@H](O)[C@H]2O)c1` [NaMN], the pKd in experiment [1] was 5.49.
For `Cc1cc2ncn([C@H]3O[C@H](COP(=O)(O)O)[C@@H](O)[C@H]3O)c2cc1C` [α-RP], the “product formation by purified enzyme from NaMN and [2-14C]-DMB, TLC” value in experiment [2] was “the amount of MjCobT-generated α-RP is displayed as a function of time for each concentration of NaMN tested”.
A word on the stoichiometry N: it is the number of molecules, sites or subunits per partner or assembly. “Methanocaldococcus jannaschii CobT (NaMN:DMB phosphoribosyltransferase) (enzyme)”: in experiment [3], the percent of the c(s) distribution in the dimer species turned out to be 81.3% and the stoichiometry N amounted to 2.
